Measured values from US11207291B2, “Antimicrobial compositions comprising cannabinoids and methods of using the same” (Graphium Biosciences, Inc., priority 2017, dated 2021).
Converted amounts (≈) assume the structure as drawn. Read-outs that look alike come from different tables or passages of the source.

What was measured:
Type in all cases: cell-based
[1] = tested on: Enterococcus faecalis (VSE); assay: Broth microdilution MIC, aerobic bacteria (Example 1); settings: Enterococcus faecalis, ATCC29212, isolate MMX 101 (ATCC 29212), read-out: MIC
[2] = tested on: Enterococcus faecalis (VRE); assay: microbe, parasite or virus in culture; settings: Enterococcus faecalis, VRE
Streptococcus pneumoniae [3] = assay: Broth microdilution MIC, aerobic bacteria (Example 1); settings: Streptococcus pneumoniae
Streptococcus pyogenes [4] = assay: as above; settings: Streptococcus pyogenes, isolate MMX 404, read-out: MIC
Escherichia coli = assay: as above; settings: Escherichia coli, ATCC25922, isolate MMX 102 (ATCC 25922), read-out: MIC
[5] = tested on: Klebsiella pneumoniae (KPC-2); settings: Example 1 summary of findings; Klebsiella
Clostridium difficile = assay: Broth microdilution MIC, anaerobic bacteria (Example 1); settings: Clostridioides difficile
Lactobacillus crispatus = assay: as above; settings: Lactobacillus crispatus
Bifidobacterium bifidum [6] = assay: as above; settings: Bifidobacterium bifidum
Bifidobacterium longum [7] = assay: as above; settings: Bifidobacterium longum
Aspergillus fumigatus [8] = assay: Broth microdilution MIC, yeast and fungi (Example 1); settings: Aspergillus fumigatus, isolate MMX 5280 (ATCC MYA-3626)
[9] = tested on: Staphylococcus aureus (MRSA); assay: microbe, parasite or virus in culture
[10] = tested on: Enterococcus faecalis (VSE); assay: Broth microdilution MIC, aerobic bacteria (Example 4); settings: ATCC29212
Streptococcus pneumoniae [11] = assay: as above; settings: ATCC49619
Streptococcus pyogenes [12] = assay: as above
Pseudomonas aeruginosa = assay: as above
Acinetobacter baumannii = assay: as above
Lactobacillus jensenii = assay: Broth microdilution MIC, anaerobic bacteria (Example 4); settings: isolate MMX 4149
Bifidobacterium bifidum [13] = assay: as above; settings: isolate MMX 3965
Bifidobacterium longum [14] = assay: as above; settings: isolate MMX 3968
Bacteroides fragilis = assay: as above; settings: ATCC25285, isolate MMX 123 (ATCC 25285)
Candida parapsilosis = assay: Broth microdilution MIC, fungi (Example 4); settings: Lodderomyces parapsilosis
Aspergillus fumigatus [15] = assay: Broth microdilution MIC, fungi (Example 4); settings: Aspergillus fumigatus
E. faecalis MMX 848 = assay: MIC/MBC testing (Example 5)
S. pyogenes MMX 404 = assay: MIC/MBC testing (Example 5)
E. coli ATCC 25922 = assay: MIC/MBC testing (Example 5); settings: Escherichia coli, ATCC25922
C. difficile = assay: MIC/MBC testing (Example 5); settings: for MBC:MIC: ratios of 1-4 are indicative of bactericidal activity; for MBC / MIC: Clostridioides difficile
B. bifidum MMX 3965 = assay: MIC/MBC testing (Example 5)
B. longum MMX 3968 = assay: MIC/MBC testing (Example 5)
B. fragilis ATCC 25285 = assay: MIC/MBC testing (Example 5); settings: Bacteroides fragilis, ATCC25285
gram-positive aerobes = assay: Broth microdilution MIC, text summary (Example 1)
gram-negative aerobes [16] = assay: Broth microdilution MIC, text summary (Example 1)
[17] = tested on: evaluated yeast and fungal isolates; assay: Broth microdilution MIC, text summary (Example 1)
gram-negative aerobes [18] = assay: Broth microdilution MIC, summary (Example 4); settings: tested alone
[19] = tested on: evaluated yeast and fungal isolates; assay: Broth microdilution MIC, summary (Example 4)
strains tested = assay: MIC/MBC testing, summary (Example 5)
[20] = read-out: inhibits the growth (IC50)
[21] = Example 1 summary of findings, read-out: inhibits the growth (IC50 values)
[22] = ratios of 1-4 are indicative of bactericidal activity
[23] = ATCC700057, Example 5, ATCC 700057
[24] = Bifidobacterium bifidum, MMX3965
[25] = Bifidobacterium longum, MMX3968

Structure (SMILES): C=C(C)[C@@H]1CCC(C)=C[C@H]1c1c(O)cc(CCCCC)cc1O [CBD, cannabidiol]
- MIC [1]: 2 µg/mL (≈ 6.36 µM)
- MIC [2]: 2 µg/mL (≈ 6.36 µM)
- IC50 [2, 20]: 2 µg/mL (≈ 6.36 µM)
- MIC (Streptococcus pneumoniae [3]; ATCC49619, Example 1, isolate MMX 1195 (ATCC 49619), read-out: MIC): 4 µg/mL (≈ 12.7 µM)
- IC50 (Streptococcus pneumoniae [3]; Example 1 summary of findings, read-out: inhibits the growth (IC50)): 4 µg/mL (≈ 12.7 µM)
- MIC (Streptococcus pyogenes [4]): 16 µg/mL (≈ 50.9 µM)
- MIC (Escherichia coli): > 256 µg/mL
- effect on the gram-negative pathogen [5]: did not have any effect
- MIC (Clostridium difficile; ATCC00057, Example 1, isolate MMX 4381 (ATCC 00057)): 32 µg/mL (≈ 102 µM)
- MIC (Clostridium difficile; Example 1, isolate MMX 8330, read-out: MIC): 32 µg/mL (≈ 102 µM)
- MIC (Clostridium difficile; Example 1, isolate MMX 8333, read-out: MIC): 32 µg/mL (≈ 102 µM)
- IC50 (Clostridium difficile; [20]): 32 µg/mL (≈ 102 µM)
- MIC (Lactobacillus crispatus; Example 1, isolate MMX 4147, read-out: MIC): 2 µg/mL (≈ 6.36 µM)
- IC50 (Lactobacillus crispatus; [21]): 2 µg/mL (≈ 6.36 µM)
- MIC (Bifidobacterium bifidum [6]; Example 1, isolate MMX 3965, read-out: MIC): 2 µg/mL (≈ 6.36 µM)
- IC50 (Bifidobacterium bifidum [6]; [21]): 2 µg/mL (≈ 6.36 µM)
- MIC (Bifidobacterium longum [7]; Example 1, isolate MMX 3968, read-out: MIC): 32 µg/mL (≈ 102 µM)
- IC50 (Bifidobacterium longum [7]; [21]): 32 µg/mL (≈ 102 µM)
- MIC (Aspergillus fumigatus [8]; 24 hr, read-out: MIC at 24 hr): > 256 µg/mL
- MIC (Aspergillus fumigatus [8]; 48 hr, read-out: MIC at 48 hr): > 256 µg/mL
- MIC [9]: 2 µg/mL (≈ 6.36 µM)
- MIC [10]: 2 µg/mL (≈ 6.36 µM)
- MIC (Streptococcus pneumoniae [11]): 4 µg/mL (≈ 12.7 µM)
- MIC (Streptococcus pyogenes [12]): 32 µg/mL (≈ 102 µM)
- MIC (Pseudomonas aeruginosa): > 128 µg/mL
- MIC (Acinetobacter baumannii): > 128 µg/mL
- MIC (Lactobacillus jensenii): > 128 µg/mL
- MIC (Bifidobacterium bifidum [13]): 8 µg/mL (≈ 25.4 µM)
- MIC (Bifidobacterium longum [14]): 64 µg/mL (≈ 204 µM)
- MIC (Bacteroides fragilis): > 128 µg/mL
- MIC (Candida parapsilosis; ATCC22019, 24 h, read-out: MIC at 24 hr): > 128 µg/mL
- MIC (Candida parapsilosis; ATCC22019, Example 4, 48 hr, isolate MMX 2323 (ATCC 22019), read-out: MIC at 48 hr): > 128 µg/mL
- MIC (Aspergillus fumigatus [15]; 48 h, read-out: MIC at 48 hr): > 128 µg/mL
- MIC (Aspergillus fumigatus [15]; Example 4, 24 hr, isolate MMX 5280 (MYA-3626), read-out: MIC at 24 hr): > 128 µg/mL
- MBC (E. faecalis MMX 848; Enterococcus faecalis, MMX848): 2 µg/mL (≈ 6.36 µM)
- MIC (E. faecalis MMX 848; Enterococcus faecalis, MMX848): 1 µg/mL (≈ 3.18 µM)
- MBC:MIC (E. faecalis MMX 848; [22]): 2
- MBC (S. pyogenes MMX 404; Streptococcus pyogenes, MMX404): 32 µg/mL (≈ 102 µM)
- MIC (S. pyogenes MMX 404; Streptococcus pyogenes, MMX404): 32 µg/mL (≈ 102 µM)
- MBC:MIC (S. pyogenes MMX 404; [22]): 1
- MIC (E. coli ATCC 25922): > 256 µg/mL
- MBC:MIC (C. difficile; ATCC 700057): 2
- MBC (C. difficile; [23]): 32 µg/mL (≈ 102 µM)
- MIC (C. difficile; [23]): 16 µg/mL (≈ 50.9 µM)
- MBC (C. difficile; Example 5, MMX 8330): 32 µg/mL (≈ 102 µM)
- MIC (C. difficile; Example 5, MMX 8330): 32 µg/mL (≈ 102 µM)
- MBC (C. difficile; Example 5, MMX 8333): 32 µg/mL (≈ 102 µM)
- MIC (C. difficile; Example 5, MMX 8333): 16 µg/mL (≈ 50.9 µM)
- MBC:MIC (C. difficile; MMX 8330): 1
- MBC:MIC (C. difficile; MMX 8333): 2
- MBC (B. bifidum MMX 3965; [24]): 32 µg/mL (≈ 102 µM)
- MIC (B. bifidum MMX 3965; [24]): 16 µg/mL (≈ 50.9 µM)
- MBC:MIC (B. bifidum MMX 3965; [22]): 2
- MBC (B. longum MMX 3968; [25]): 64 µg/mL (≈ 204 µM)
- MIC (B. longum MMX 3968; [25]): 16 µg/mL (≈ 50.9 µM)
- MBC:MIC (B. longum MMX 3968; [22]): 4
- MIC (B. fragilis ATCC 25285): 16 µg/mL (≈ 50.9 µM)
- activity against gram-positive aerobic bacteria (gram-positive aerobes): active
- activity against gram-negative aerobic bacteria (gram-negative aerobes [16]): inactive
- activity against yeast and fungal isolates [17]: Neither the cannabinoid prodrugs or CBD were active
- activity against Gram-negative aerobes (gram-negative aerobes [18]): inactive
- activity against yeast and fungal isolates [19]: Neither THC nor CBD were active
- biocidal activity against the strains tested (strains tested): overall biocidal
